Laboratory results published in patent US5446032A, “Imidazo (4,5-C) pyridine derivatives as PAF antagonists” (British Biotech Pharmaceuticals Limited, priority 1991, dated 1995).

The molecules below were run against T1, PAF receptor (human platelet plasma membrane) (Homo sapiens, UniProt P25105) (assay: Inhibition of [3H]-PAF receptor binding to human platelet plasma membrane). Conditions: [3H]-PAF 0.5 nM; 100 μg membrane fraction; 0° C.; 1 hour incubation; pH 7.0.
T1 construct: Platelet concentrates are obtained from a hospital blood bank; from tissue; host or cells: human platelets (concentrates from a hospital blood bank), lysed by freeze-thaw; membrane fraction
Method: Compounds of general formula I inhibit PAF-induced functions in both the cellular and tissue levels by changing the PAF binding to its specific receptor site. The ability of compounds of general formula I to inhibit the binding of PAF to its specific receptor binding site on human platelet plasma membranes was measured according to Example 24.
Inhibition of [^3 H]-PAF Receptor Binding
The inhibition of [^3 H]-PAF binding to human platelet plasma membrane by compounds of general formula I is determined by isotopic labelling and filtration techniques. Platelet concentrates are obtained from a hospital blood bank. These platelet concentrates (500-2500 ml.) are centrifuged at 800 rpm for 10 minutes in a SORVALL RC3B centrifuge to remove the red blood cells present. (The word SORVALL is a trade mark.) The supernatant is subsequently centrifuged at 3,000 rpm in a SORVALL RC3B centrifuge to pellet the platelets present. The platelet rich pellets are resuspended in a minimum volume of buffer (150 mM NaCl, 10 mM Tris, 2 mM EDTA, pH 7.5) and layered onto Ficoll-Paque gradients, 9 ml platelet concentrate to 2 ml Ficoll, and centrifuged at 1,900 rpm for 15 minutes in a SORVALL RT6000 centrifuge. This step removes the residual red blood cells and other nonspecific material such as lymphocytes from the preparation. The platelets which form a band between the plasma and the Ficoll are removed, resuspended in the above buffer and centrifuged at 3,000 rpm for 10 minutes in a SORVALL RT6000 centrifuge. The pelleted platelets are resuspended in buffer (10 mM Tris, 5 mM MgCl2, 2 mM EDTA, pH 7.0), snap freezed in liquid N2 and allowed to thaw slowly at room temperature in order to lyse the platelets. The latter step is repeated at least 3 times to ensure proper lysis. The lysed platelets are centrifuged at 3,000 rpm for 10 minutes in a SORVALL RT6000 centrifuge and resuspended in buffer. The latter step is repeated twice in order to remove any cytoplasmic proteins which may hydrolyse the platelet activating factor (PAF) receptor. The prepared platelet membranes may be stored at -70° C. After thawing the prepared membranes are centrifuged in a SORVALL RT6000 at 3,000 rpm for 10 minutes and resuspended in assay buffer.
The assay is conducted by preparing a series of Tris-buffered solutions of the selected antagonist of predetermined concentrations. Each of these solutions contained [^3 H]-PAF (0.5 nM; 1-O-[^3 H]octadecyl-2-acetyl-sn-glycero-3-phosphoryl choline with a specific activity of 132 Ci/mmol), […], a known amount of the test antagonist, and a sufficient amount of Tris-buffer solution (10 mM Tris, 5 mM MgC2, pH 7.0, 0.25% BSA) to make the final volume 1 ml. Incubation is initiated by the addition of 100 μg of the isolated membrane fraction to each of the above solutions at 0° C. Two control samples, one (C1) which contained all the ingredients described above except the antagonist and the other (C2) contains C1 plus a 1000-fold excess of unlabelled PAF, are also prepared and incubated simultaneously with the test samples. After 1 hour incubation, each solution is filtered rapidly under vacuo through a WHATMAN GF/C glass fibre filter in order to separate unbound PAF from bound PAF. (The word WHATMAN is a trade mark.) The residue in each case is rapidly washed 4 times with 5 ml cold (4° C.) Tris-buffer solution. Each washed residue is dried under vacuum on a sampling manifold and placed into vials containing 20 ml of OPTIPHASE MP scintillation fluid and the radioactivity counted in a liquid scintillation counter. (The word OPTIPHASE is a trade mark.) Defining the counts for total binding with antagonist from a test sample as "TBA"; the counts for total binding from the control sample C1 as "TB"; and the counts for nonspecific binding from the control sample C2 as "NSB"; the percent inhibition of each test antagonist can be determined by the following equation:
%Inhibition=[(TB-TBA)/SB]×100
where the specific binding SB=TB-NSB […]

T1 sequence (P25105 whole entry): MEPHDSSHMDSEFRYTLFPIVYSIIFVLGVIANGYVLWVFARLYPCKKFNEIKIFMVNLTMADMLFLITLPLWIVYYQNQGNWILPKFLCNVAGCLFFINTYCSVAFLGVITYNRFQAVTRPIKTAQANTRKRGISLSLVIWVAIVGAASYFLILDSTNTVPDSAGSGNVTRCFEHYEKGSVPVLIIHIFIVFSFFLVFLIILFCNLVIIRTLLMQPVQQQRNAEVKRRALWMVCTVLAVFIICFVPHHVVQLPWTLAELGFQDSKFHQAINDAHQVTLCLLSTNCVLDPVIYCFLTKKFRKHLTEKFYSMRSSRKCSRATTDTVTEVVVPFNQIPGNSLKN

Point of comparison: `C=CCOC(=O)[C@H]([C@@H](C)CC)N(C)S(=O)(=O)c1ccc(Cn2ccc3nc(C)nc-3c2)cc1` [Example 4, N-Methyl-N-4-(5H-2-methylimidazo[4,5-c]pyridylmethyl)phenylsulphonyl-L-isoleucine allyl ester], IC50 10 nM. Against it:
- CCOC(=O)[C@H](CC(C)C)N(C)S(=O)(=O)c1ccc(Cn2ccc3ncnc-3c2)cc1 [Example 1, N-Methyl-N-4-(5H-imidazo[4,5-c]pyridylmethyl)phenylsulphonyl-L-leucine ethyl ester] — 2-fold lower, 5 nM
- CCOC(=O)[C@H](CC(C)C)N(C)S(=O)(=O)c1ccc(Cn2ccc3nc(C)nc-3c2)c(Cl)c1 [Example 5, N-Methyl-N-4-(5H-2-methylimidazo[4,5-c]pyridylmethyl)-3-chlorophenylsulphonyl-L-leucine ethyl ester] — 5-fold lower, 2 nM
- CCOC(=O)CN([C@@H](CC(C)C)C(=O)OCC)S(=O)(=O)c1ccc(Cn2ccc3nc(C)nc-3c2)cc1 [Example 6, N-Ethoxycarbonylmethyl-N-4-(5H-2-methylimidazo[4,5-c]pyridylmethyl)phenylsulphonyl-L-leucine ethyl ester] — the same, 10 nM
- CCOC(=O)[C@H](CC(C)C)N(CC(=O)OC(C)(C)C)S(=O)(=O)c1ccc(Cn2ccc3nc(C)nc-3c2)cc1 [Example 8, N-t-Butyloxycarbonylmethyl-N-4-(5H-2-methylimidazo[4,5-c]pyridylmethyl)phenylsulphonyl-L-leucine ethyl ester] — 1.5-fold higher, 15 nM
- Cc1nc2ccn(Cc3ccc(S(=O)(=O)N(C)[C@H](CO[Si](c4ccccc4)(c4ccccc4)C(C)(C)C)CC(C)C)cc3)cc-2n1 [Example 21, N-Methyl-N-4-(5H-2-methylimidazo[4,5-c]pyridylmethyl)phenylsulphonyl-L-leucinyl t-butyldiphenylsilyl ether] — 2-fold higher, 20 nM
- COC(C)C(C(C)C)N(C)S(=O)(=O)c1ccc(Cn2ccc3nc(C)nc-3c2)cc1 (stereo not shown) [Example 23, N-Methyl-N-4-(5H-2-methylimidazo[4,5-c]pyridylmethyl)phenylsulphonyl-2-methoxy-3-amino-4-methylpentane] — 1.5-fold higher, 15 nM
